Laboratory results from PMC10272271, “MAM-2201 acute administration impairs motor, sensorimotor, prepulse inhibition, and memory functions in mice: a comparison with its analogue AM-2201” (Psychopharmacology, 2023).

Experiments:
Type in all cases: in vivo, mouse
CD-1 male mice [1] = assay: Visual object response test; conditions: AM 251 6 mg/kg i.p. 20 min before MAM-2201 6 mg/kg
Procedure: For the overall study 234 mice were used. In sensorimotor (visual object, visual placing, acoustic, and overall tactile responses) tests for MAM-2201, experiments for each treatment dose (vehicle or 5 different MAM-2201 doses, 0.01, 0.1, 1, 3, and 6 mg/kg) used 8 mice (total mice used: 48) and for MAM-2201 with AM-251 pretreatment, experiments for each dose regimen (vehicle + AM-251 or MAM-2201 + AM-251, 6 mg/kg) used 16 mice. In the analysis of spontaneous locomotion (open field test) for MAM-2201, experiments for each treatment regimen (vehicle or 4 different MAM-2201 doses, 0.01, 0.1, 1, and 6 mg/kg) used 10 mice (total mice used: 50). In the PPI test for MAM-2201, experiments for each treatment (vehicle or 3 different MAM-2201 doses, 0.01, 0.1, and 1 mg/kg) used 10 mice (total mice used: 40), while for MAM-2201 experiments in the Novel Object Recognition (NOR) test for each treatment regimen (vehicle or 3 different MAM-2201 and vehicle or 3 different AM-2201 doses, 0.01, 0.1, and 1 mg/kg) used 10 mice (total mice used: 80). In the present study the effect of MAM-2201 on sensorimotor responses was investigated using a battery of behavioral tests widely used in studies of “safety-pharmacology,” that we routinely adopted in our laboratory, for the preclinical characterization of new molecules in rodents (Ossato et al. [2015]; Vigolo et al. [2015]; Bilel et al. [2020]). The voluntary and involuntary motor responses of the animal to different visual, acoustic, and tactile stimuli were evaluated according to the procedure described in our previous studies (Ossato et al. [2015]; Bilel et al. [2020]). To reduce the number of animals used, mice were evaluated in functional observational tests carried out in a consecutive manner according to the following time scheme: observation of visual object responses (frontal and lateral view), acoustic response, tactile response (vibrissae, corneal and pinnae reflexes), and visual placing response. Sensorimotor tests were measured at 10, 30, 60, 120, 180, 240, and 300 min after injections for the evaluation of the visual object, acoustic and the tactile response, and at 15, 45, 75, 135, 195, 255, and 315 min after injections for the evaluation of visual placing response. Behavioral tests were conducted in a thermostated (temperature: 20–22 °C, humidity: 45–55%) and light (150 lx) controlled room with a background noise of 40 ± 4 dB. The apparatus for the visual object, acoustic and tactile sensorimotor tests consisted of an experimental chamber (350 × 350 × 350 mm) with black methacrylate walls and a transparent front door. During the week before the experiment, each mouse was placed in the box and handled (once a day) on every other day, i.e., 3 times, to get used to both the environment and the experimenter. To avoid olfactory cues, cages were carefully cleaned with a dilute (5%) ethanol solution and rinsed with water. All experiments were performed between 8:30 AM and 2:00 PM and conducted by trained observers working in pairs who were blinded to the treatment being tested (Ossato et al. [2015]). The behavior of mice was videotaped by a camera (B/W USB Camera day & night with varifocal lens; Ugo Basile, Italy) placed at the top or on one side of the box and analyzed off-line by a different trained operator. Spontaneous locomotion studies were conducted in a separate set of animals through ANYMAZE test. Sensory gating was evaluated by analysis of the pre-pulse inhibition (PPI) of the acoustic startle reflex as previously described (Bilel et al. [2020]).
Visual object response test was used to evaluate the ability of the mouse to see an object approaching from the front (frontal view) or the side (lateral view) that typically induces the animal to shift or turn the head, bring the forelimbs in the position of “defense” or retreat from it. For the frontal visual response, a white horizontal bar was moved frontally to the mouse head and the maneuver was repeated 3 times. […]

CD-1 male mice [2] = assay: Visual placing response test; conditions: AM 251 6 mg/kg i.p. before MAM-2201 6 mg/kg
Procedure: For the overall study 234 mice were used. In sensorimotor (visual object, visual placing, acoustic, and overall tactile responses) tests for MAM-2201, experiments for each treatment dose (vehicle or 5 different MAM-2201 doses, 0.01, 0.1, 1, 3, and 6 mg/kg) used 8 mice (total mice used: 48) and for MAM-2201 with AM-251 pretreatment, experiments for each dose regimen (vehicle + AM-251 or MAM-2201 + AM-251, 6 mg/kg) used 16 mice. In the analysis of spontaneous locomotion (open field test) for MAM-2201, experiments for each treatment regimen (vehicle or 4 different MAM-2201 doses, 0.01, 0.1, 1, and 6 mg/kg) used 10 mice (total mice used: 50). In the PPI test for MAM-2201, experiments for each treatment (vehicle or 3 different MAM-2201 doses, 0.01, 0.1, and 1 mg/kg) used 10 mice (total mice used: 40), while for MAM-2201 experiments in the Novel Object Recognition (NOR) test for each treatment regimen (vehicle or 3 different MAM-2201 and vehicle or 3 different AM-2201 doses, 0.01, 0.1, and 1 mg/kg) used 10 mice (total mice used: 80). […] The voluntary and involuntary motor responses of the animal to different visual, acoustic, and tactile stimuli were evaluated according to the procedure described in our previous studies (Ossato et al. [2015]; Bilel et al. [2020]). To reduce the number of animals used, mice were evaluated in functional observational tests carried out in a consecutive manner according to the following time scheme: observation of visual object responses (frontal and lateral view), acoustic response, tactile response (vibrissae, corneal and pinnae reflexes), and visual placing response. Sensorimotor tests were measured at 10, 30, 60, 120, 180, 240, and 300 min after injections for the evaluation of the visual object, acoustic and the tactile response, and at 15, 45, 75, 135, 195, 255, and 315 min after injections for the evaluation of visual placing response. […] Sensory gating was evaluated by analysis of the pre-pulse inhibition (PPI) of the acoustic startle reflex as previously described (Bilel et al. [2020]). […]

CD-1 male mice [3] = assay: Acoustic response test; conditions: AM 251 6 mg/kg i.p. before MAM-2201 6 mg/kg
Procedure: For the overall study 234 mice were used. In sensorimotor (visual object, visual placing, acoustic, and overall tactile responses) tests for MAM-2201, experiments for each treatment dose (vehicle or 5 different MAM-2201 doses, 0.01, 0.1, 1, 3, and 6 mg/kg) used 8 mice (total mice used: 48) and for MAM-2201 with AM-251 pretreatment, experiments for each dose regimen (vehicle + AM-251 or MAM-2201 + AM-251, 6 mg/kg) used 16 mice. In the analysis of spontaneous locomotion (open field test) for MAM-2201, experiments for each treatment regimen (vehicle or 4 different MAM-2201 doses, 0.01, 0.1, 1, and 6 mg/kg) used 10 mice (total mice used: 50). In the PPI test for MAM-2201, experiments for each treatment (vehicle or 3 different MAM-2201 doses, 0.01, 0.1, and 1 mg/kg) used 10 mice (total mice used: 40), while for MAM-2201 experiments in the Novel Object Recognition (NOR) test for each treatment regimen (vehicle or 3 different MAM-2201 and vehicle or 3 different AM-2201 doses, 0.01, 0.1, and 1 mg/kg) used 10 mice (total mice used: 80). In the present study the effect of MAM-2201 on sensorimotor responses was investigated using a battery of behavioral tests widely used in studies of “safety-pharmacology,” that we routinely adopted in our laboratory, for the preclinical characterization of new molecules in rodents (Ossato et al. [2015]; Vigolo et al. [2015]; Bilel et al. [2020]). The voluntary and involuntary motor responses of the animal to different visual, acoustic, and tactile stimuli were evaluated according to the procedure described in our previous studies (Ossato et al. [2015]; Bilel et al. [2020]). To reduce the number of animals used, mice were evaluated in functional observational tests carried out in a consecutive manner according to the following time scheme: observation of visual object responses (frontal and lateral view), acoustic response, tactile response (vibrissae, corneal and pinnae reflexes), and visual placing response. Sensorimotor tests were measured at 10, 30, 60, 120, 180, 240, and 300 min after injections for the evaluation of the visual object, acoustic and the tactile response, and at 15, 45, 75, 135, 195, 255, and 315 min after injections for the evaluation of visual placing response. Behavioral tests were conducted in a thermostated (temperature: 20–22 °C, humidity: 45–55%) and light (150 lx) controlled room with a background noise of 40 ± 4 dB. The apparatus for the visual object, acoustic and tactile sensorimotor tests consisted of an experimental chamber (350 × 350 × 350 mm) with black methacrylate walls and a transparent front door. During the week before the experiment, each mouse was placed in the box and handled (once a day) on every other day, i.e., 3 times, to get used to both the environment and the experimenter. To avoid olfactory cues, cages were carefully cleaned with a dilute (5%) ethanol solution and rinsed with water. All experiments were performed between 8:30 AM and 2:00 PM and conducted by trained observers working in pairs who were blinded to the treatment being tested (Ossato et al. [2015]). The behavior of mice was videotaped by a camera (B/W USB Camera day & night with varifocal lens; Ugo Basile, Italy) placed at the top or on one side of the box and analyzed off-line by a different trained operator. […] Sensory gating was evaluated by analysis of the pre-pulse inhibition (PPI) of the acoustic startle reflex as previously described (Bilel et al. [2020]). […]

CD-1 male mice [4] = assay: Overall tactile response (vibrissae, corneal, pinnae reflexes); conditions: AM 251 6 mg/kg i.p. before MAM-2201 6 mg/kg
Procedure: For the overall study 234 mice were used. In sensorimotor (visual object, visual placing, acoustic, and overall tactile responses) tests for MAM-2201, experiments for each treatment dose (vehicle or 5 different MAM-2201 doses, 0.01, 0.1, 1, 3, and 6 mg/kg) used 8 mice (total mice used: 48) and for MAM-2201 with AM-251 pretreatment, experiments for each dose regimen (vehicle + AM-251 or MAM-2201 + AM-251, 6 mg/kg) used 16 mice. In the analysis of spontaneous locomotion (open field test) for MAM-2201, experiments for each treatment regimen (vehicle or 4 different MAM-2201 doses, 0.01, 0.1, 1, and 6 mg/kg) used 10 mice (total mice used: 50). In the PPI test for MAM-2201, experiments for each treatment (vehicle or 3 different MAM-2201 doses, 0.01, 0.1, and 1 mg/kg) used 10 mice (total mice used: 40), while for MAM-2201 experiments in the Novel Object Recognition (NOR) test for each treatment regimen (vehicle or 3 different MAM-2201 and vehicle or 3 different AM-2201 doses, 0.01, 0.1, and 1 mg/kg) used 10 mice (total mice used: 80). In the present study the effect of MAM-2201 on sensorimotor responses was investigated using a battery of behavioral tests widely used in studies of “safety-pharmacology,” that we routinely adopted in our laboratory, for the preclinical characterization of new molecules in rodents (Ossato et al. [2015]; Vigolo et al. [2015]; Bilel et al. [2020]). The voluntary and involuntary motor responses of the animal to different visual, acoustic, and tactile stimuli were evaluated according to the procedure described in our previous studies (Ossato et al. [2015]; Bilel et al. [2020]). To reduce the number of animals used, mice were evaluated in functional observational tests carried out in a consecutive manner according to the following time scheme: observation of visual object responses (frontal and lateral view), acoustic response, tactile response (vibrissae, corneal and pinnae reflexes), and visual placing response. Sensorimotor tests were measured at 10, 30, 60, 120, 180, 240, and 300 min after injections for the evaluation of the visual object, acoustic and the tactile response, and at 15, 45, 75, 135, 195, 255, and 315 min after injections for the evaluation of visual placing response. Behavioral tests were conducted in a thermostated (temperature: 20–22 °C, humidity: 45–55%) and light (150 lx) controlled room with a background noise of 40 ± 4 dB. […] The behavior of mice was videotaped by a camera (B/W USB Camera day & night with varifocal lens; Ugo Basile, Italy) placed at the top or on one side of the box and analyzed off-line by a different trained operator. […] Sensory gating was evaluated by analysis of the pre-pulse inhibition (PPI) of the acoustic startle reflex as previously described (Bilel et al. [2020]). […]

Cc1c(C(=O)NN2CCCCC2)nn(-c2ccc(Cl)cc2Cl)c1-c1ccc(I)cc1 [AM 251, 1-(2,4-Dichlorophenyl)-5-(4-iodophenyl)-4-methyl-N-(piperidin-1-yl)-1H-pyrazole-3-carboxamide, reference compound]
effect of pre-treatment on MAM-2201-induced inhibition of visual object response (CD-1 male mice [1]): significantly prevented | effect of pre-treatment on MAM-2201-induced inhibition of visual placing response (CD-1 male mice [2]): prevented | effect of pre-treatment on MAM-2201-induced inhibition of acoustic response (CD-1 male mice [3]): prevented | effect of pre-treatment on MAM-2201-induced inhibition of overall tactile response (CD-1 male mice [4]): prevented
